Results as given in patent US20020192821A1, “Increased functional activity and/or expression of ABC transporters protects against the loss of dopamine neurons associated with Parkinson's disease” (Active Pass Pharmaceuticals, Inc., priority 2001, published 2002).

Columns and labels:
ABCG4 transporter = target: T1, ABCG4 transporter (Homo sapiens, UniProt Q9H172); assay: Dopamine-induced cytotoxicity (MTT assay) in hDAT cells transiently transfected with ABCG4, in the presence of ABC transporter inhibitors; type: cell-based; conditions: hDAT-SK-N-MC cells transfected with ABCG4, DA 50 μM for 24 hours, glipizide 250 μM or probenecid 500 μM added two hours prior to DA, FIG. 2
T1 construct: expressed in transfected cells; host or cells: hDAT-SK-N-MC (human neuroblastoma SK-N-MC stably expressing hDAT), transient transfection, pCEP4 or pcDNA3.1

ABCC5 transporter = ABCC5 transporter (Homo sapiens, UniProt O15440); conditions: hDAT-SK-N-MC cells transfected with ABCC5; DA 50 μM for 24 hours; glipizide 250 μM or probenecid 500 μM added two hours prior to DA; MTT; FIG. 2
Sequence of ABCC5 transporter (O15440 whole entry): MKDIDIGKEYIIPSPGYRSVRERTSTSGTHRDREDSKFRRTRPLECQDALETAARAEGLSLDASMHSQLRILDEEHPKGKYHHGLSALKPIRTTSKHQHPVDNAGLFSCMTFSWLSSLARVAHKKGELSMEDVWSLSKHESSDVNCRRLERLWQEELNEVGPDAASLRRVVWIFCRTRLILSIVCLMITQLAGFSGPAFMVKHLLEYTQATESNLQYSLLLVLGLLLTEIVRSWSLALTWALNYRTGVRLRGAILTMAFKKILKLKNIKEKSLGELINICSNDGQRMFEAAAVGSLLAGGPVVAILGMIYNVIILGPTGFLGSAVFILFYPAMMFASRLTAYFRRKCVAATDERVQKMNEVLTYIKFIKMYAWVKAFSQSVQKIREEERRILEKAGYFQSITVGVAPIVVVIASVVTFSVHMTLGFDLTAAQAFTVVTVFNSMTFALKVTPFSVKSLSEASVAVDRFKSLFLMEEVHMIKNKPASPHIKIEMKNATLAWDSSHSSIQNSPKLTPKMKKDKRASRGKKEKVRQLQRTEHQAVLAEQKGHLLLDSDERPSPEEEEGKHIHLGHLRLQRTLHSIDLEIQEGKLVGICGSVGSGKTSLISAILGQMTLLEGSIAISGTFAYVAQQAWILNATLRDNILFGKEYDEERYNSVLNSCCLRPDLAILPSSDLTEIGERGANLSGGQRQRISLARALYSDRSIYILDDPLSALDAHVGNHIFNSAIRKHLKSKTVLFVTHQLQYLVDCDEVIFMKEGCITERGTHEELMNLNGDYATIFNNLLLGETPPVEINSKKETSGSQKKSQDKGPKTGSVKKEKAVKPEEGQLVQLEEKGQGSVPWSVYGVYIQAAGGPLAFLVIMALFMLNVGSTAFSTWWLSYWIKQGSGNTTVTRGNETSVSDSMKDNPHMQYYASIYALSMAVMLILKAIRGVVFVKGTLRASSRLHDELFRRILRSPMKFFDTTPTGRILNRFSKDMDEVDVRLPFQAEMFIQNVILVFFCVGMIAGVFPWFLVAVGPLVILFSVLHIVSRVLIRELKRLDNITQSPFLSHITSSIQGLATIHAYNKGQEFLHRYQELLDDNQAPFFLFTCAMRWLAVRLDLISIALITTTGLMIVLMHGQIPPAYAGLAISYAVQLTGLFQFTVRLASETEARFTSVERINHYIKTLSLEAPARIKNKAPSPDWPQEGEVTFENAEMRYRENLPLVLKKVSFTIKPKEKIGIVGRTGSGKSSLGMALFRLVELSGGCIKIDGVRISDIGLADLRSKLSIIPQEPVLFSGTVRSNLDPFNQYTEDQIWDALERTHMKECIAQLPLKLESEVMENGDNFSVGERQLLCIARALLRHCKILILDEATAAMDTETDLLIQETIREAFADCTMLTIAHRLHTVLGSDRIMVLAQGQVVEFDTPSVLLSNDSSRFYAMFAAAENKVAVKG

T1 sequence (Q9H172 whole entry): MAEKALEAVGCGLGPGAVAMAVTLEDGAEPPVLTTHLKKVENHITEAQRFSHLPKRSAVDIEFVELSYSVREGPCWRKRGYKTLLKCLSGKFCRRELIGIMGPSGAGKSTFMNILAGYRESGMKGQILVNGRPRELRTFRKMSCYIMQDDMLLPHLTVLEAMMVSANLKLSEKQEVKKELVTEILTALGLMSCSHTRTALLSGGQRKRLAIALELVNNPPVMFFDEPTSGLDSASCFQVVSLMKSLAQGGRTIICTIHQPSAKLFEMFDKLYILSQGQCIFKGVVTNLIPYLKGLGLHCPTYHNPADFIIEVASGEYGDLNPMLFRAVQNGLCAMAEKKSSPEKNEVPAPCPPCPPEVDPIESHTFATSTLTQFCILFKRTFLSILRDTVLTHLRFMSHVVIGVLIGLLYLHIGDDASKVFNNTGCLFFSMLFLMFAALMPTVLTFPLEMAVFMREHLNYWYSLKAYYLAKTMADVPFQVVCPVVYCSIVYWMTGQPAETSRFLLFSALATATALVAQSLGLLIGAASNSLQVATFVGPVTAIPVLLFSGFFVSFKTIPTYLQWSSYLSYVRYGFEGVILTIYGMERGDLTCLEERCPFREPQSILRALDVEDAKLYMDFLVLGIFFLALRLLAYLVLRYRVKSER

CCCN(CCC)S(=O)(=O)c1ccc(C(=O)O)cc1 [probenecid]
effect on the protective effect of ABCG4 against dopamine-induced toxicity (ABCG4 transporter): reversed the protective effect | effect on the protective effect of ABCC5 against dopamine-induced toxicity (ABCC5 transporter): reversed the protective effect
